Assay results reported in US20170001990A1 (Genentech, Inc., priority 2014, published 2017).

target: Human recombinant carboxy-terminal his-tagged LDHA (amino acids 2-332) (Homo sapiens, UniProt P00338); assay: LDHA enzyme inhibition assay (NADH fluorescence); conditions: LDHA IC50 (μM), 1 nM LDHA, NADH and pyruvate, stereochemistry of tested sample given
Procedure: Test compounds were diluted in 100% DMSO with 1:3 serial dilutions. […] For the enzyme reaction, serially diluted compounds were added to a mixture of enzyme and NADH. […] Following the baseline read, pyruvate was added to the assay plates and the plates were read with excitation 340 nm and emission 480 nm for 10 minutes every 2.5 seconds. A suitable linear timeframe was selected (150-400 s) to calculate the slope of each concentration tested. The raw data were fitted to 4-parameter dose-response curves using the following equation:
fit=(A+((B−A)/(1+((C/x)̂D))))
inv=(C/((((B−A)/(y−A))−)̂(1/D)))
res=(y−fit) • where A=minimum y, B=maximum y, C=50% y max, and D=slope factor.
The curve bottom was set to the background rate (initial 5 second recording prior to addition of pyruvate) and curve top was set to no inhibitor (DMSO only) control wells rate.
The compounds of the present invention were tested for their capacity to inhibit LDHA activity and activation as described in the enzyme inhibition assay described above.

Compound | IC50
CC1(COc2cccc(C3(c4ccsc4)CC(=O)C(Sc4ccccc4Cl)C(=O)N3)n2)CC1 (single isomer, unassigned) [Example 158, 3-(2-chlorophenyl)sulfanyl-6-[6-[(1-methylcyclo-propyl)methoxy]-2-pyridyl]-6-(3-thienyl)piperidine-2,4-dione] | 0.018 µM
COCCOc1ccc(C2(c3ccsc3)CC(=O)C(Sc3ccccc3Cl)C(=O)N2)cc1 (stereo not shown) [Example 30, 3-(2-chlorophenyl)sulfanyl-6-[4-(2-methoxyethoxy)phenyl]-6-(3-thienyl)piperidine-2,4-dione] | 0.053 µM
O=C1CC(c2ccsc2)(c2cccc(Cc3ccccc3)n2)NC(=O)C1Sc1ccccc1Cl (single isomer, unassigned) [Example 118, 6-(6-benzylpyridin-2-yl)-3-((2-chloropnenyl)thio)-6-(thiophen-3-yl) piperidine-2,4-dione] | 0.622 µM
O=C1CC(c2ccsc2)(c2cccc(Cc3ccc(F)c(F)c3)n2)NC(=O)C1Sc1ccccc1Cl (single isomer, unassigned) [Example 256, 3-((2-chlorophenyl)thio)-6-(6-(3,4-difluorobenzyl)pyridin-2-yl)-6-(thiophen-3-yl)piperidine-2,4-dione] | 0.062 µM
O=C1CC(c2ccsc2)(c2cccc(OCCC3CCCC3)n2)NC(=O)C1Sc1ccccc1Cl (single isomer, unassigned) [Example 113, 3-((2-chlorophenyl)thio)-6-(6-(2-cyclopentyl-ethoxy)pyridin-2-yl)-6-(thiophen-3-yl)piperidine-2,4-dione] | 0.014 µM
CC(C)(O)CCCOc1cccc(C2(c3ccsc3)CC(=O)C(Sc3ccccc3Cl)C(=O)N2)n1 (single isomer, unassigned) [Example 135, 3-(2-chlorophenyl)sulfanyl-6-[6-(4-hydroxy-4-methyl-pentoxy)-2-pyridyl]-6-(3-thienyl) piperidine-2,4-dione] | 0.04 µM
O=C1CC(c2ccsc2)(c2cccc(OCC3CCC(CO)CC3)n2)NC(=O)C1Sc1ccccc1Cl (stereo not shown) [Example 253] | 0.081 µM
CC1(C)OCC(CCOc2cccc(C3(c4ccsc4)CC(=O)C(Sc4ccccc4Cl)C(=O)N3)n2)O1 (stereo not shown) [Example 190, 3-(2-chlorophenyl)sulfanyl-6-[6-[2-(2,2-dimethyl-1,3-dioxolan-4-yl)ethoxy]-2-pyridyl]-6-(3-thienyl) piperidine-2,4-dione] | 0.092 µM
O=C1CC(c2ccsc2)(c2ccc(N3CCOCC3)c(Oc3ccc(F)cc3)n2)NC(=O)C1Sc1ccccc1Cl (stereo not shown) [Example 27, 3-(2-chlorophenyl)sulfanyl-6-[6-(4-fluorophenoxy)-5-morpholino-2-pyridyl]-6-(3-thienyl)piperidine-2,4-dione] | 0.05 µM
COc1ccccc1Oc1cccc(C2(c3ccsc3)CC(=O)C(Sc3ccccc3Cl)C(=O)N2)n1 (stereo not shown) [Example 61, 3-(2-chlorophenyl)sulfanyl-6-[6-(2-methoxyphenoxy)-2-pyridyl]-6-(3-thienyl) piperidine-2,4-dione] | 0.02 µM
CCOCCOc1cccc(C2(c3ccsc3)CC(=O)C(Sc3ccccc3Cl)C(=O)N2)n1 (single isomer, unassigned) [Example 227, 3-(2-chlorophenyl)sulfanyl-6-[6-(2-ethoxyethoxy)-2-pyridyl]-6-(3-thienyl) piperidine-2,4-dione] | 0.015 µM
Cc1cnc(N)n1-c1cccc(C2(c3ccsc3)CC(=O)C(Sc3ccccc3Cl)C(=O)N2)n1 (stereo not shown) [Example 278, 6-(6-(2-amino-5-methyl-1H-imidazol-1-yl)pyridin-2-yl)-3-((2-chloro-phenyl)thio)-6-(thiophen-3-yl)piperidine-2,4-dione] | 0.339 µM
O=C1CC(c2ccsc2)(c2cccc(Oc3ccccc3F)n2)NC(=O)C1Sc1ccccc1Cl (stereo not shown) [Example 52, 3-(2-chlorophenyl)sulfanyl-6-[6-(2-fluorophenoxy)-2-pyridyl]-6-(3-thienyl)piperidine-2,4-dione] | 0.045 µM
CCOCC(C)Oc1cccc(C2(c3ccsc3)CC(=O)C(Sc3ccccc3Cl)C(=O)N2)n1 (stereo not shown) [Example 247, 3-((2-chlorophenyl)thio)-6-(6-((1-ethoxypropan-2-yl)oxy)pyridin-2-yl)-6-(thiophen-3-yl)piperidine-2,4-dione] | 0.01 µM
O=C1CC(c2ccsc2)(c2cccc(Oc3ccc4ncccc4c3)n2)NC(=O)C1Sc1ccccc1Cl (single isomer, unassigned) [Example 117, 3-(2-chlorophenyl)sulfanyl-6-[6-(6-quinolyloxy)-2-pyridyl]-6-(3-thienyl) piperidine-2,4-dione] | 0.076 µM
O=C1CC(c2ccc(OCCO)cc2)(c2ccsc2)NC(=O)C1Sc1ccccc1Cl (stereo not shown) [Example 29, 3-(2-chlorophenyl)sulfanyl-6-[4-(2-hydroxyethoxy)phenyl]-6-(3-thienyl)piperidine-2,4-dione] | 0.009 µM
CCC(C)COc1cccc(C2(c3ccsc3)CC(=O)C(Sc3ccccc3Cl)C(=O)N2)n1 (stereo not shown) [Example 188, 3-(2-chlorophenyl)sulfanyl-6-[6-(2-methylbutoxy)-2-pyridyl]-6-(3-thienyl) piperidine-2,4-dione] | 0.015 µM

Compound | IC50
O=C1CC(c2ccsc2)(c2cccc(Oc3cccc(C(F)F)c3)n2)NC(=O)C1Sc1ccccc1Cl (single isomer, unassigned) [Example 115, 3-(2-chlorophenyl)sulfanyl-6-[6-[3-(difluoromethyl)phenoxy]-2-pyridyl]-6-(3-thienyl)piperidine-2,4-dione] | 0.031 µM
O=C1CC(c2ccsc2)(c2cccc(Br)n2)NC(=O)C1Sc1ccccc1Cl (stereo not shown) [Example 1, 6-(6-bromo-2-pyridyl)-3-(2-chlorophenyl)sulfanyl-6-(3-thienyl)piperidine-2,4-dione] | 0.006 µM
CN(c1cccc(CO)c1)c1cccc(C2(c3ccsc3)CC(=O)C(Sc3ccccc3Cl)C(=O)N2)n1 (stereo not shown) [Example 310, 3-((2-chlorophenyl)thio)-6-(6-((3-(hydroxymethyl)phenyl)(methyl)amino)pyridin-2-yl)-6-(thiophen-3-yl)piperidine-2,4-dione] | 0.365 µM
CCOc1cccc(C2(c3ccsc3)CC(=O)C(Sc3ccccc3Cl)C(=O)N2)n1 (stereo not shown) [Example 74, 3-(2-chlorophenyl)sulfanyl-6-(6-ethoxy-2-pyridyl)-6-(3-thienyl)piperidine-2,4-dione] | 0.014 µM
CCN(c1ccc(F)cc1)c1cccc(C2(c3ccsc3)CC(=O)C(Sc3ccccc3Cl)C(=O)N2)n1 (stereo not shown) [Example 263, 3-((2-chlorophenyl)thio)-6-(6-(ethyl(4-fluorophenyl)amino)pyridin-2-yl)-6-(thiophen-3-yl)piperidine-2,4-dione] | 0.086 µM
CN1C(=O)C(Sc2ccccc2Cl)C(=O)CC1(c1ccsc1)c1cccc(Oc2ccc(F)cc2)n1 (stereo not shown) [Example 12, 3-(2-chlorophenyl)sulfanyl-6-[6-(4-fluorophenoxy)-2-pyridyl]-1-methyl-6-(3-thienyl)piperidine-2,4-dione] | 0.027 µM
O=C1CC(c2ccsc2)(c2cccc(Oc3ccc(F)c(C(F)F)c3)n2)NC(=O)C1Sc1ccccc1Cl (stereo not shown) [Example 152, 3-(2-chlorophenyl)sulfanyl-6-[6-[3-(difluoromethyl)-4-fluoro-phenoxy]-2-pyridyl]-6-(3-thienyl) piperidine-2,4-dione] | 0.006 µM
CC(C)(C)OCCOc1cccc(C2(c3ccsc3)CC(=O)C(Sc3ccccc3Cl)C(=O)N2)n1 (stereo not shown) [Example 230, 6-[6-(2-tert-butoxyethoxy)-2-pyridyl]-3-(2-chloro-phenyl)sulfanyl-6-(3-thienyl)piperidine-2,4-dione] | 0.022 µM
CC(Oc1cccc(C2(c3ccsc3)CC(=O)C(Sc3ccccc3Cl)C(=O)N2)n1)C1CC1 (single isomer, unassigned) [Example 214, 3-(2-chlorophenyl)sulfanyl-6-[6-(1-cyclopropyl-ethoxy)-2-pyridyl]-6-(3-thienyl)piperidine-2,4-dione] | 0.017 µM
O=C1CC(c2ccsc2)(c2ccc(N3CCOCC3)cc2O)NC(=O)C1Sc1ccccc1Cl (stereo not shown) [Example 35, 3-(2-chlorophenyl)sulfanyl-6-(2-hydroxy-4-morpholino-phenyl)-6-(3-thienyl)piperidine-2,4-dione] | 0.007 µM
CC(Oc1cccc(C2(c3ccsc3)CC(=O)C(Sc3ccccc3Cl)C(=O)N2)n1)c1ccc(F)cc1 (stereo not shown) [Example 301] | 0.092 µM
O=C1CC(c2ccsc2)(c2cccc(Oc3ccc(Cl)cc3)n2)NC(=O)C1Sc1ccccc1Cl (stereo not shown) [Example 167, 6-[6-(4-chlorophenoxy)-2-pyridyl]-3-(2-chlorophenyl) sulfanyl-6-(3-thienyl) piperidine-2,4-dione] | 0.006 µM
Cn1ccnc1Nc1cccc(C2(c3ccsc3)CC(=O)C(Sc3ccccc3Cl)C(=O)N2)n1 (stereo not shown) [Example 277, 3-((2-chlorophenyl)thio)-6-(6-((1-methyl-1H-imidazol-2-yl)amino)pyridin-2-yl)-6-(thiophen-3-yl)piperidine-2,4-dione] | 0.337 µM
O=C1CC(c2ccsc2)(c2cccc(OCCCC(F)(F)F)n2)NC(=O)C1Sc1ccccc1Cl (single isomer, unassigned) [Example 142, 3-(2-chlorophenyl)sulfanyl-6-(3-thienyl)-6-[6-(4,4,4-trifluorobutoxy)-2-pyridyl]piperidine-2,4-dione] | 0.031 µM
CC(C)(O)CCCOc1cccc(C2(c3ccsc3)CC(=O)C(Sc3ccccc3Cl)C(=O)N2)n1 (single isomer, unassigned) [Example 126, 3-(2-chlorophenyl)sulfanyl-6-[6-(4-hydroxy-4-methyl-pentoxy)-2-pyridyl]-6-(3-thienyl) piperidine-2,4-dione] | 0.238 µM
O=C1CC(c2ccsc2)(c2cccc(Oc3ccccn3)n2)NC(=O)C1Sc1ccccc1Cl (stereo not shown) [Example 46, 3-(2-chlorophenyl) sulfanyl-6-[6-(2-pyridyloxy)-2-pyridyl]-6-(3-thienyl)piperidine-2,4-dione] | 0.005 µM
COc1cc(Cc2cccc(C3(c4ccsc4)CC(=O)C(Sc4ccccc4Cl)C(=O)N3)n2)ccc1F (single isomer, unassigned) [Example 283, 3-((2-chlorophenyl)thio)-6-(6-(4-fluoro-3-methoxy-benzyl)pyridin-2-yl)-6-(thiophen-3-yl)piperidine-2,4-dione] | 0.037 µM
